From EP1351977B1, “ANTIMICROBIAL PSEUDOPEPTIDES” (INSTITUT NATIONAL DE LA RECHERCHE AGRONOMIQUE (INRA), priority 2001, dated 2004)
Where two headings read alike, the source gives them in different places. Ends that are not written are not given here.

Experiments:
Format in all cases: cell-based
Botrytis cinerea sp = assay: Antifungal growth inhibition test in liquid medium
Piricularia oryzae sp = test system: Piricularia oryzae sp
Phytophthora myc = assay: Antifungal growth inhibition test in liquid medium
Description: (§1) Les composés des pics 5, 7 et 8 de la figure 1 ont été testées vis-à-vis d'un ensemble de champignons phytopathogènes. Trois doses (10, 20, et 40 ppm) ont été employées pour chacun des composés.
(§2) L'activité antifongique a été détectée par un test d'inhibition de croissance en milieu liquide. Les spores des champignons à tester ont été mises en suspension dans un milieu de culture de type "Pomme de terre-Glucose". De préférence, on utilise 12 g de milieu Potato Dextrose Broth (Difco) pour 1 litre d'eau déminéralisée. Deux antibiotiques ont été rajoutés au milieu de culture: la tétracycline (concentration finale de 10 µg/ml) et la céfotaxime (100 µg/ml). On dépose 10 µl de chaque composé à tester dans des plaques de microtitration en présence de 90 µl de milieu de culture contenant les spores (à une concentration finale de 10^4 spores/ml). L'incubation a été réalisée en chambre humide à 30°C durant 48 heures. La croissance fongique a été observée au microscope photonique après 24 h et quantifiée après 48 heures par mesure de l'absorbance à 600 nm à l'aide d'un spectrophotomètre lecteur de plaque de microtitration. L'activité des composés contre les champignons phytopathogènes est exprimée par un pourcentage d'inhibition de croissance correspondant à 100 x (1 - absorbance avec produit/ absorbance du témoin sans produit), l'absorbance étant mesurée à 600 nm, 5 jours après le début de l'expérience.

Fusarium culmorum sp = assay: Antifungal growth inhibition test in liquid medium
Description: as §1, §2

Bacillus megaterium = assay: Bacterial growth inhibition test in Petri dish (solid medium), MIC; settings: MIC extrapolated from inhibition diameter vs log10 concentration
[1] = test system: Staphylococcus epidermidis; assay: as above; settings: MIC extrapolated from inhibition diameter vs log10 concentration
Klebsiella pneumoniae = assay: as above; settings: MIC extrapolated from inhibition diameter vs log10 concentration
Septoria tritici sp = assay: Antifungal growth inhibition test in liquid medium
[2] = test system: Proteus vulgaris CIP58.60; assay: Bacterial growth inhibition test in Petri dish (solid medium), MIC; settings: MIC extrapolated from inhibition diameter vs log10 concentration
[3] = test system: Helminthosporium teres sp; assay: Antifungal growth inhibition test in liquid medium
Serratia entomophila = assay: Bacterial growth inhibition test in Petri dish (solid medium), MIC; settings: MIC extrapolated from inhibition diameter vs log10 concentration
Rhizoctonia solani myc = assay: Antifungal growth inhibition test in liquid medium
Pseudomonas fluorescens = assay: Bacterial growth inhibition test in Petri dish (solid medium), MIC; settings: MIC extrapolated from inhibition diameter vs log10 concentration
Cladosporium myc = assay: Antifungal growth inhibition test in liquid medium
Streptococcus Gr. D = assay: Bacterial growth inhibition test in Petri dish (solid medium), MIC; settings: MIC extrapolated from inhibition diameter vs log10 concentration
Alternaria brassicae = assay: Antifungal growth inhibition test in liquid medium
Escherichia coli CIP548 = assay: Bacterial growth inhibition test in Petri dish (solid medium), MIC; settings: MIC extrapolated from inhibition diameter vs log10 concentration
Cladosporium sp = assay: Antifungal growth inhibition test in liquid medium
Botrytis cinerea myc = assay: Antifungal growth inhibition test in liquid medium
Salmonella sp. = assay: Bacterial growth inhibition test in Petri dish (solid medium), MIC; settings: MIC extrapolated from inhibition diameter vs log10 concentration
Experimental: Deux tests ont été utilisés pour mesurer l'activité antibactérienne des pseudopeptides, un test d'inhibition de la croissance bactérienne en microplaques (de 96 puits) en milieu liquide et un test d'inhibition de la croissance bactérienne en boîte de Pétri en milieu solide. • * Test en microplaques: La culture bactérienne à tester est prélevée en phase exponentielle, puis diluée au 1/500^ème dans du milieu liquide TSB frais. Chaque puits de la microplaque est rempli avec 100 µl de suspension bactérienne diluée. Dans le premier puits, 100 µl de l'échantillon de pseudopeptide à tester est ajouté à la suspension bactérienne, puis l'échantillon est dilué de 2 en 2 en transférant d'un puits à l'autre 100 µl de suspension. La lecture de la microplaque se fait en mesurant la densité optique à […] (DO600nm) après 24h d'incubation à 28°C ou 37°C selon les bactéries cibles. Connaissant la concentration en pseudopeptide de l'échantillon de départ, ce test permet de déterminer la valeur de la CMI (Concentration Minimale d'Inhibition de la croissance bactérienne). Dans ce test, la CMI correspond à la concentration de l'échantillon pour lequel la DO600nm est inférieure à celle du témoin de culture. • * Test en boîte de Pétri: La culture bactérienne à tester est prélevée en phase exponentielle, puis incorporée à 10 ml d'une gélose dite "sous-couche" (Agarose 1% poids/vol; NaCl 100 mM; Trypcase 0.03 % poids/vol; Tampon phosphate 10 mM pH7.4) à raison de 2.10^5 bactéries/ml. Le mélange est coulé dans une boîte de Pétri ordinaire. 9 puits d'environ 10 µl de volume sont formés dans la "sous-couche" à l'aide d'un embout de pipette stérile de 10 ml. Ces puits sont remplis avec une série de dilutions des pseudopeptides à tester (concentration initiale 500 µg/ml, et dilution de deux en deux jusqu'à 1,95 µg/ml). Après diffusion à température ambiante pendant 2h, une gélose dite "sur-couche" (Agarose 1% wt/vol; Trypcase 6 % wt/vol; Tampon phosphate 10 mM pH7.4) est ajoutée sur la sous-couche à raison de 5 à 10 ml. Après solidification, l'ensemble est mis à incuber pendant une nuit. Le diamètre d'inhibition de la culture bactérienne autour de chaque puits est mesuré en mm; il existe une relation linéaire entre le diamètre d'inhibition et le log10 de la concentration en pseudopeptide qui permet de déterminer par extrapolation la valeur de la CMI.
Une première série de résultats a été obtenue en utilisant le test en boîte de Pétri vis-à-vis de bactéries non pathogènes issues de la collection de Travaux pratiques du laboratoire de Pathologie Comparée de l'Université de Montpellier (France). Dans cette série, les pseudopeptides des pics 5, 7, 8,10 et 11 ont été testés (Tableau 4).

Staphylococcus aureus = assay: as above; settings: MIC extrapolated from inhibition diameter vs log10 concentration

## Composé 5: pseudopeptide du pic n° 5 (HPLC, Figure 1) de Xenorhabdus nematophilus F1; Famille 1: Lys Lys Lys Lys Lys Gly; 1052 Da (KKKKKG; also: pseudopeptide modifications)
Botrytis cinerea sp; 10 ppm
  pourcentage d'inhibition de croissance: 38%
Botrytis cinerea sp; 20 ppm
  pourcentage d'inhibition de croissance: 95%
Botrytis cinerea sp; 40 ppm
  pourcentage d'inhibition de croissance: 95%
Piricularia oryzae sp; 10 ppm
  pourcentage d'inhibition de croissance: 18%
Piricularia oryzae sp; 20 ppm
  pourcentage d'inhibition de croissance: 22%
Piricularia oryzae sp; 40 ppm
  pourcentage d'inhibition de croissance: 45%
Phytophthora myc; 10 ppm
  pourcentage d'inhibition de croissance: 79%
Phytophthora myc; 20 ppm
  pourcentage d'inhibition de croissance: 78%
Phytophthora myc; 40 ppm
  pourcentage d'inhibition de croissance: 77%
Fusarium culmorum sp; 10 ppm
  pourcentage d'inhibition de croissance: 96%
Fusarium culmorum sp; 20 ppm
  pourcentage d'inhibition de croissance: 96%
Fusarium culmorum sp; 40 ppm
  pourcentage d'inhibition de croissance: 96%
Bacillus megaterium
  CMI: 0,75 µg/ml
[1]
  CMI: 30 µg/mL
Klebsiella pneumoniae
  CMI: 30 µg/mL
Septoria tritici sp; 10 ppm
  pourcentage d'inhibition de croissance: 88%
Septoria tritici sp; 20 ppm
  pourcentage d'inhibition de croissance: 88%
Septoria tritici sp; 40 ppm
  pourcentage d'inhibition de croissance: 85%
[2]
  CMI: 200 µg/mL
[3]; 10 ppm
  pourcentage d'inhibition de croissance: 70%
[3]; 20 ppm
  pourcentage d'inhibition de croissance: 91%
[3]; 40 ppm
  pourcentage d'inhibition de croissance: 95%
Serratia entomophila
  CMI: 60 µg/mL
Rhizoctonia solani myc; 10 ppm
  pourcentage d'inhibition de croissance: 9.7%
Rhizoctonia solani myc; 20 ppm
  pourcentage d'inhibition de croissance: 85%
Rhizoctonia solani myc; 40 ppm
  pourcentage d'inhibition de croissance: 93%
Pseudomonas fluorescens
  CMI: 3 µg/mL
Cladosporium myc; 10 ppm
  pourcentage d'inhibition de croissance: 89%
Cladosporium myc; 20 ppm
  pourcentage d'inhibition de croissance: 90%
Cladosporium myc; 40 ppm
  pourcentage d'inhibition de croissance: 89%
Streptococcus Gr. D
  CMI: 200 µg/mL
Alternaria brassicae; 10 ppm
  pourcentage d'inhibition de croissance: 82%
Alternaria brassicae; 20 ppm
  pourcentage d'inhibition de croissance: 84%
Alternaria brassicae; 40 ppm
  pourcentage d'inhibition de croissance: 83%
Escherichia coli CIP548
  CMI: 15 µg/mL
Cladosporium sp; 10 ppm
  pourcentage d'inhibition de croissance: 94%
Cladosporium sp; 20 ppm
  pourcentage d'inhibition de croissance: 94%
Cladosporium sp; 40 ppm
  pourcentage d'inhibition de croissance: 94%
Botrytis cinerea myc; 10 ppm
  pourcentage d'inhibition de croissance: 21%
Botrytis cinerea myc; 20 ppm
  pourcentage d'inhibition de croissance: 34%
Botrytis cinerea myc; 40 ppm
  pourcentage d'inhibition de croissance: 60%
Salmonella sp.
  CMI: 30 µg/mL
Staphylococcus aureus
  CMI: 7,5 µg/ml
